Reference: ChEMBL document CHEMBL1201862, “PubChem BioAssay data set” (2004)
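Briefly, cells in 96-well plates were exposed to five compound concentrations for 48 h, and endpoints were estimated by linear interpolation. At the GI50, growth is halved.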 Active and inactive are the calls of the source. Rule as the data show it: active = GI50 up to about 1.1 µM and inactive = higher.

Tests used:
Experiment in all cases: NCI tumour cell line growth inhibition, 48 h
IGROV-1 = tested on: IGROV-1
T47D = tested on: T47D
M14 = tested on: M14
OVCAR-5 = tested on: OVCAR-5
BT-549 = tested on: BT-549
ACHN = tested on: ACHN
HT-29 = tested on: HT-29
UACC-257 = tested on: UACC-257
LOX IMVI = tested on: LOX IMVI
HCT-15 = tested on: HCT-15
NCI-H460 = tested on: NCI-H460
HL-60 = tested on: HL-60
SK-MEL-28 = tested on: SK-MEL-28
NCI/ADR-RES = tested on: NCI/ADR-RES
MDA-MB-435 = tested on: MDA-MB-435
K562 = tested on: K562
NCI-H522 = tested on: NCI-H522
RXF 393 = tested on: RXF 393
Hs-578T = tested on: Hs-578T

Compound	GI50 (IGROV-1)	GI50 (T47D)	GI50 (M14)	GI50 (OVCAR-5)	GI50 (BT-549)	GI50 (ACHN)	GI50 (HT-29)	GI50 (UACC-257)	GI50 (LOX IMVI)	GI50 (HCT-15)	GI50 (NCI-H460)	GI50 (HL-60)	GI50 (SK-MEL-28)	GI50 (NCI/ADR-RES)	GI50 (MDA-MB-435)	GI50 (K562)	GI50 (NCI-H522)	GI50 (RXF 393)	GI50 (Hs-578T)
Nn1nnc2ccccc21	> 100 µM (inactive)	> 100 µM (inactive)	> 100 µM (inactive)	> 100 µM (inactive)	> 100 µM (inactive)	> 100 µM (inactive)	> 100 µM (inactive)	> 100 µM (inactive)	> 100 µM (inactive)	> 100 µM	> 100 µM (inactive)	> 100 µM (inactive)	> 100 µM (inactive)	> 100 µM (inactive)	> 100 µM (inactive)	> 100 µM (inactive)	–	–	–
Cn1cc(C(=O)C[n+]2ccccc2)c2ccccc21	72.1 µM (inactive)	–	> 100 µM (inactive)	–	–	> 100 µM (inactive)	48.5 µM (inactive)	> 100 µM (inactive)	> 100 µM (inactive)	> 100 µM	> 100 µM (inactive)	> 100 µM (inactive)	–	–	–	33.6 µM (inactive)	56 µM (inactive)	–	–
COc1ccc(OC)c(C2CCCc3c2cnc2nc(N)nc(N)c32)c1 (stereo not drawn)	< 0.01 µM (active)	–	< 0.01 µM (active)	–	–	< 0.01 µM (active)	< 0.01 µM (active)	< 0.01 µM (active)	< 0.01 µM (active)	< 0.01 µM	< 0.01 µM (active)	< 0.01 µM (active)	> 100 µM (inactive)	1.04 µM (active)	< 0.01 µM (active)	< 0.01 µM (active)	< 0.0392 µM (active)	< 0.0129 µM (active)	> 57.3 µM (inactive)
COc1ccc2nc(/C(N)=C\C#N)ccc2c1	29.9 µM (inactive)	30.9 µM (inactive)	42.1 µM (inactive)	> 100 µM (inactive)	–	75.2 µM (inactive)	47.6 µM (inactive)	> 100 µM (inactive)	36 µM (inactive)	> 100 µM	> 100 µM (inactive)	18 µM (inactive)	> 100 µM (inactive)	30.8 µM (inactive)	32.6 µM (inactive)	31.6 µM (inactive)	37 µM (inactive)	1.89 µM (inactive)	1.01 µM (active)
O=C1c2c(ccc3c2CCC3)CC12Cc1cc3c(cc1C2)CCC3	> 100 µM (inactive)	> 100 µM (inactive)	> 100 µM (inactive)	> 100 µM (inactive)	–	> 100 µM (inactive)	> 100 µM (inactive)	> 100 µM (inactive)	> 100 µM (inactive)	> 100 µM	> 100 µM (inactive)	> 100 µM (inactive)	> 100 µM (inactive)	> 100 µM (inactive)	> 100 µM (inactive)	> 100 µM (inactive)	> 100 µM (inactive)	> 100 µM (inactive)	> 100 µM (inactive)
N#Cc1nc(-c2ccccc2C(=O)O)oc1N	> 100 µM (inactive)	> 100 µM (inactive)	> 100 µM (inactive)	> 100 µM (inactive)	–	> 100 µM (inactive)	> 100 µM (inactive)	> 100 µM (inactive)	> 100 µM (inactive)	> 100 µM	> 100 µM (inactive)	> 100 µM (inactive)	> 100 µM (inactive)	> 100 µM (inactive)	> 100 µM (inactive)	> 100 µM (inactive)	> 100 µM (inactive)	> 100 µM (inactive)	> 100 µM (inactive)
Cc1cc(C)c(C#N)c(SC(=S)NC(=O)c2ccc(Cl)cc2)n1	–	> 100 µM (inactive)	> 100 µM (inactive)	> 100 µM (inactive)	> 100 µM (inactive)	> 100 µM (inactive)	–	> 100 µM (inactive)	> 100 µM (inactive)	> 100 µM	> 100 µM (inactive)	–	> 100 µM (inactive)	> 100 µM (inactive)	> 100 µM (inactive)	–	–	> 100 µM (inactive)	–
Cn1c(=O)sc2cc(C(=S)N3CCC(Cc4ccccc4)CC3)ccc21	33.8 µM (inactive)	–	33.3 µM (inactive)	> 100 µM (inactive)	30.3 µM (inactive)	> 100 µM (inactive)	62.1 µM (inactive)	38.3 µM (inactive)	58.5 µM (inactive)	99.5 µM	27.8 µM (inactive)	22.5 µM (inactive)	46.6 µM (inactive)	21.4 µM (inactive)	27.5 µM (inactive)	34.9 µM (inactive)	–	21.6 µM (inactive)	21.4 µM (inactive)
CC(CO)(CBr)COC(=O)c1cc(Br)c(N)c(Br)c1 (stereo not drawn)	33.9 µM (inactive)	> 100 µM (inactive)	> 100 µM (inactive)	> 100 µM (inactive)	76.2 µM (inactive)	73.8 µM (inactive)	> 100 µM (inactive)	> 100 µM (inactive)	> 100 µM (inactive)	> 100 µM	–	> 100 µM (inactive)	> 100 µM (inactive)	> 100 µM (inactive)	98.9 µM (inactive)	> 100 µM (inactive)	–	–	–
COC(=O)c1c(O)ccc(O)c1C(C(C)=O)C(C)=O	> 100 µM (inactive)	–	> 100 µM (inactive)	–	–	–	> 100 µM (inactive)	> 100 µM (inactive)	> 100 µM (inactive)	> 100 µM	> 100 µM (inactive)	> 100 µM (inactive)	> 100 µM (inactive)	–	–	> 100 µM (inactive)	45.9 µM (inactive)	> 100 µM (inactive)	–
Cc1cc(S(=O)(=O)N2CCNNC2=O)c(S)cc1Cl	87.9 µM (inactive)	–	41.6 µM (inactive)	> 100 µM (inactive)	20.8 µM (inactive)	> 100 µM (inactive)	–	> 100 µM (inactive)	28.8 µM (inactive)	56.5 µM	> 100 µM (inactive)	39.7 µM (inactive)	20 µM (inactive)	> 100 µM (inactive)	> 100 µM (inactive)	37.2 µM (inactive)	22.5 µM (inactive)	13.7 µM (inactive)	> 100 µM (inactive)
O=S1(=O)OCCOS(=O)(=O)C1(F)Br	–	> 100 µM (inactive)	> 100 µM (inactive)	> 100 µM (inactive)	–	> 100 µM (inactive)	> 100 µM (inactive)	> 100 µM (inactive)	> 100 µM (inactive)	> 100 µM	–	> 100 µM (inactive)	> 100 µM (inactive)	> 100 µM (inactive)	> 100 µM (inactive)	> 100 µM (inactive)	> 100 µM (inactive)	> 100 µM (inactive)	> 100 µM (inactive)
CNc1nnc(CCCCCCCCc2nnc(NC)o2)o1	> 100 µM (inactive)	–	> 100 µM (inactive)	> 100 µM (inactive)	> 100 µM (inactive)	> 100 µM (inactive)	29.9 µM (inactive)	51.8 µM (inactive)	16.4 µM (inactive)	27.8 µM	42 µM (inactive)	32.4 µM (inactive)	> 100 µM (inactive)	> 100 µM (inactive)	63.8 µM (inactive)	31.9 µM (inactive)	–	> 100 µM (inactive)	–
Cn1c(=O)c2[nH]c(-n3nc(-c4ccccc4)cc3N)nc2n(C)c1=O	1.34 µM (inactive)	11.3 µM (inactive)	10.5 µM (inactive)	21.3 µM (inactive)	14.5 µM (inactive)	3.66 µM (inactive)	4.15 µM (inactive)	–	–	0.8 µM	3.3 µM (inactive)	12 µM (inactive)	11 µM (inactive)	2.4 µM (inactive)	18 µM (inactive)	6.46 µM (inactive)	–	26.8 µM (inactive)	–
CNC1=Nc2ccc(Cl)cc2C(c2ccccc2)=NN1C	> 100 µM (inactive)	–	> 100 µM (inactive)	> 100 µM (inactive)	–	> 100 µM (inactive)	56.5 µM (inactive)	83 µM (inactive)	60.4 µM (inactive)	> 100 µM	> 100 µM (inactive)	46 µM (inactive)	> 100 µM (inactive)	–	–	51.2 µM (inactive)	> 100 µM (inactive)	17.5 µM (inactive)	–
CC(NC(=O)c1ccc(NP(=O)(OCc2ccc([N+](=O)[O-])o2)N(C)CCCCCl)cc1)c1ccc(OCC2CCCCC2)c(C(N)=O)c1 (stereo not drawn)	15.9 µM (inactive)	5.37 µM (inactive)	–	25.4 µM (inactive)	–	29 µM (inactive)	18.3 µM (inactive)	13.4 µM (inactive)	13.7 µM (inactive)	46 µM	17.1 µM (inactive)	16 µM (inactive)	17 µM (inactive)	61.8 µM (inactive)	12 µM (inactive)	17.3 µM (inactive)	15.5 µM (inactive)	10.9 µM (inactive)	16.3 µM (inactive)
CCCC(=O)OC1=C(c2ccccc2)Sc2ccccc2-n2cccc21	> 10 µM (inactive)	> 10 µM (inactive)	> 10 µM (inactive)	–	–	–	> 10 µM (inactive)	> 10 µM (inactive)	> 10 µM (inactive)	> 10 µM	–	> 10 µM (inactive)	> 10 µM (inactive)	–	8.57 µM (inactive)	> 10 µM (inactive)	–	> 10 µM (inactive)	–
c1ccc(C/C(=N\Nc2nc3ccccc3o2)c2ccccn2)cc1	0.0643 µM (active)	–	0.0382 µM (active)	< 0.01 µM (active)	0.342 µM (active)	0.0202 µM (active)	< 0.01 µM (active)	0.0775 µM (active)	0.185 µM (active)	0.0252 µM	0.0931 µM (active)	0.0698 µM (active)	–	0.0246 µM (active)	0.638 µM (active)	0.027 µM (active)	0.191 µM (active)	0.0851 µM (active)	0.569 µM (active)
